Our source for the IC50 values is US20250163054A1, “SUBSTITUTED BICYCLIC HETEROARYL COMPOUNDS USEFUL AS INHIBITORS OF TLR9” (Bristol-Myers Squibb Company, priority 2022, published 2025).

What all share (format): cell-based
One assay addresses T1, human TLR9 (Homo sapiens, UniProt Q9NR96).
T1 construct: host or cells: HEK-Blue cells (HEK293-derived reporter line)
T1 sequence (Q9NR96 26-1032): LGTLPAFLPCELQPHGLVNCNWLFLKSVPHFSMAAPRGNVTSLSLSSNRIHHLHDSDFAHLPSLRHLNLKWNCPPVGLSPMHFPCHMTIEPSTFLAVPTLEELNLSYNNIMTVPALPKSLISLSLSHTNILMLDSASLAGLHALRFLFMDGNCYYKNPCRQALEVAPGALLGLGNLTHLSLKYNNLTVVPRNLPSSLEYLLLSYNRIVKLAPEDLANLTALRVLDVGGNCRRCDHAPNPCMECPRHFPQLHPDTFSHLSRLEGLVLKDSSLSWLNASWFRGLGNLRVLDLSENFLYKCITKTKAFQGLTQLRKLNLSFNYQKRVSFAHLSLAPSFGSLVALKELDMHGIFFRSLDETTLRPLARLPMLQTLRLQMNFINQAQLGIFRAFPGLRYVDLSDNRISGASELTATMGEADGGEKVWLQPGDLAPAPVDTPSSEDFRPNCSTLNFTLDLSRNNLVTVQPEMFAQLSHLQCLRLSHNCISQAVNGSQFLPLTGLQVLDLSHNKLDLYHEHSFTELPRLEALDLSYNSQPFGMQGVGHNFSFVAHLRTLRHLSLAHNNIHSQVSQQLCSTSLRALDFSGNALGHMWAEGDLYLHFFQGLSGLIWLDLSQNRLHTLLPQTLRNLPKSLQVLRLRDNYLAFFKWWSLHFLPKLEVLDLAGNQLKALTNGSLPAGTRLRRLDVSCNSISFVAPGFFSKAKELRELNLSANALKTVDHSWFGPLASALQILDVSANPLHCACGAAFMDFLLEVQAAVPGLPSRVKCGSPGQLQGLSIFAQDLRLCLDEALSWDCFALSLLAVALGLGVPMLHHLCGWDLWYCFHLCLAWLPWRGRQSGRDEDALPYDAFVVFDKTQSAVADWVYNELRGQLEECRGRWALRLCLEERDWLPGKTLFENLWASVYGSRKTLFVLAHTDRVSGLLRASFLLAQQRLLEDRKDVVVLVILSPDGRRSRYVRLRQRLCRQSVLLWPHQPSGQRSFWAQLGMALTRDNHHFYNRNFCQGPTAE
The experiment in a line: TLR7/8/9 Inhibition Reporter Assays (TLR9). The conditions noted are these: HEK-Blue cells overexpressing human TLR9, SEAP reporter, stimulated with TLR9 ligand ODN2006. How it is done: (§1) HEK-Blue™-cells (Invivogen) overexpressing human TLR7, TLR8 or TLR9 receptors were used for screening inhibitors of these receptors using an inducible SEAP (secreted embryonic alkaline phosphatase) reporter gene under the control of the IFN-β minimal promoter fused to five NF-κB and AP-1-binding sites. Cells are seeded into Greiner 384 well plates (15000 cells per well) that are predispensed (by ECHO) with testing compounds in DMSO to yield a final dose response concentration range of 0.85 nM-[…]. After a 60 minute compound pre-treatment in 37° C. incubator, the cells are then stimulated with a TLR7 ligand (gardiquimod at a final concentration of […]), TLR8 ligand (R848 at a final concentration of […]) or TLR9 ligand (ODN2006 at a final concentration of 200 nM) to activate NF-κB and AP-1 which induce the production of SEAP. After a 22 hour incubation at 37° C., 5% CO2, SEAP levels are determined with the addition of HEK-Blue™ Detection reagent (Invivogen), a cell culture medium that allows for detection of SEAP, according to manufacturer's specifications. The percent inhibition is determined as the % reduction in the HEK-Blue signal present in wells treated with agonist plus DMSO alone compared to wells treated with a known inhibitor.
On the technique in general: Reporter assays use an easily measured gene product as a stand-in for the process of interest.

A further assay has as its target T2, human TLR7 (Homo sapiens, UniProt Q9NYK1).
T2 construct: host or cells: HEK-Blue cells (HEK293-derived reporter line)
T2 sequence (Q9NYK1 27-1049): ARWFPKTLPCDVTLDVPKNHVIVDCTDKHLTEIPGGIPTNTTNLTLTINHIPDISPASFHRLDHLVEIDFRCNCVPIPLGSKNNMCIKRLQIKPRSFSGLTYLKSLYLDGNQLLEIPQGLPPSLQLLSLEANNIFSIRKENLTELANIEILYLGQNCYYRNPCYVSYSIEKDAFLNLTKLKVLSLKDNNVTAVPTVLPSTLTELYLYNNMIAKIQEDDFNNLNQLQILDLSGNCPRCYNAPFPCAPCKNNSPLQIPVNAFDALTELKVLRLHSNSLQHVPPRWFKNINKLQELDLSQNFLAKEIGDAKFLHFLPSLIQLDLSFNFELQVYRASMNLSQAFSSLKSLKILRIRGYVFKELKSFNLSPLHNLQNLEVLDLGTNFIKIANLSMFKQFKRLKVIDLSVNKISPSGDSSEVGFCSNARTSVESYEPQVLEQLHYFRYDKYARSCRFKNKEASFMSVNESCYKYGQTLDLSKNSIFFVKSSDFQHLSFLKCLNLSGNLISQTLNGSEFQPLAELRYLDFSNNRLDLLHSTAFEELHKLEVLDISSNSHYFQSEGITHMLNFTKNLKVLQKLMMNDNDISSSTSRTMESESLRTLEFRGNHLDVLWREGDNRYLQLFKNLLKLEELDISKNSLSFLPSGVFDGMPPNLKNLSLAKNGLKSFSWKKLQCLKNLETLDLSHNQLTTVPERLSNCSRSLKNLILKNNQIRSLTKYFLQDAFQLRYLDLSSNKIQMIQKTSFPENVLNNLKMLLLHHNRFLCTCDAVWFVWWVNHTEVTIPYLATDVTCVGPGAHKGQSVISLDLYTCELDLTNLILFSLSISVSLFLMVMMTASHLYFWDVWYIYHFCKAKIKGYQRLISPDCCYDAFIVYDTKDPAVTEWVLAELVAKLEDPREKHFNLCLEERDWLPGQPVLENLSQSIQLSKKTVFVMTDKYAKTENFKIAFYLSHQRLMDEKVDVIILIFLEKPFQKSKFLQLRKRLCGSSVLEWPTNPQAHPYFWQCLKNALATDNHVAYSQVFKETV
As to the kind of experiment: TLR7/8/9 Inhibition Reporter Assays (TLR7). The following applies: HEK-Blue cells overexpressing human TLR7, SEAP reporter, stimulated with TLR7 ligand gardiquimod. How it is done: as §1

In another assay the target is T3, human TLR8 (Homo sapiens, UniProt Q9NR97).
T3 construct: host or cells: HEK-Blue cells (HEK293-derived reporter line)
T3 sequence (Q9NR97 27-1041): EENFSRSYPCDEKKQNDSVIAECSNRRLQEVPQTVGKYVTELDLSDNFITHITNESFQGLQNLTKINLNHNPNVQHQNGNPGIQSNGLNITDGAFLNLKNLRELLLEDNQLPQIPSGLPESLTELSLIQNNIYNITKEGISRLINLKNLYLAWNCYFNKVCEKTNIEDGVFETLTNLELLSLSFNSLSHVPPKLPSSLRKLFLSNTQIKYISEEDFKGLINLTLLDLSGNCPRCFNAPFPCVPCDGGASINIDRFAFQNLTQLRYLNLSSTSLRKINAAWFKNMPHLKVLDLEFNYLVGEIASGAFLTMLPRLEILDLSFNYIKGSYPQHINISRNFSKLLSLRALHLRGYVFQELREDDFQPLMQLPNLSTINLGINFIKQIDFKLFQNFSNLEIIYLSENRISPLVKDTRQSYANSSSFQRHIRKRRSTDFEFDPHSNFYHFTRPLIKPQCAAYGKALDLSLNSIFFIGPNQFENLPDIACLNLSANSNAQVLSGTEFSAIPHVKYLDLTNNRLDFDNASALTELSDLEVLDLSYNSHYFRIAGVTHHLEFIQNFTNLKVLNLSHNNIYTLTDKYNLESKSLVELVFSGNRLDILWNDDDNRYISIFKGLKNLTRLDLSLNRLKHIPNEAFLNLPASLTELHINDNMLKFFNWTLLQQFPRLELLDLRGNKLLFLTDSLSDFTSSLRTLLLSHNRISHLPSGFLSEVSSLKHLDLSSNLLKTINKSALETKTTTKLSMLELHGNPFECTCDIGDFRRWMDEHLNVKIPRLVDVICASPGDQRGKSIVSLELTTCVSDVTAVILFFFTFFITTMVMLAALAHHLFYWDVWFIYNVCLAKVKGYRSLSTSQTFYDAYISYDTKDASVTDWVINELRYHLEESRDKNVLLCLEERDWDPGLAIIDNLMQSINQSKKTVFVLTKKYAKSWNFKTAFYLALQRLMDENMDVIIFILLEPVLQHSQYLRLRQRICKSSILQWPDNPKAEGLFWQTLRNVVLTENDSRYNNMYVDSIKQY
As to the kind of experiment: TLR7/8/9 Inhibition Reporter Assays (TLR8). The following applies: HEK-Blue cells overexpressing human TLR8, SEAP reporter, stimulated with TLR8 ligand R848. How it is done:
as §1

One may read the IC50 as the concentration that inhibits the measured activity by half. A higher IC50 goes with lower potency. Turning to `CC(C)N1CC2(CCN(c3ccc(-c4cc5c(cn4)nc(-c4ccc(S(C)(=O)=O)cc4)n5C)cc3)CC2)C1` [Example 95, 6-(4-(2-isopropyl-2,7-diazaspiro[3.5]nonan-7-yl)phenyl)-1-methyl-2-(4-(methylsulfonyl)phenyl)-1H-imidazo[4,5-c]pyridine], the results for the IC50 at human TLR9, against human TLR7 and against human TLR8 were 350 nM, 2100 nM and 890 nM, respectively.
For `COCCN1CC2(CCN(c3ccc(-c4cc5c(nc(-c6ccc(OC)c(OC)c6)n5C)c(C)n4)cc3)CC2)C1` [Example 103, 2-(3,4-dimethoxyphenyl)-6-(4-(2-(2-methoxyethyl)-2,7-diazaspiro[3.5]nonan-7-yl)phenyl)-1,4-dimethyl-1H-imidazo[4,5-c]pyridine], in that order: 140 nM, 1700 nM and above 50000 nM.
On the same counts, the results for `Cc1nc(-c2ccc(C3CCNCC3)cc2)cc2c1nc(-c1ccc(S(C)(=O)=O)cc1)n2C` [Example 27, 1,4-dimethyl-2-(4-(methylsulfonyl)phenyl)-6-(4-(piperidin-4-yl)phenyl)-1H-imidazo[4,5-c]pyridine] are 1100 nM, 20000 nM and 46000 nM.
On the same counts, the results for `COc1ccc(-c2nc3cnc(-c4ccc(N5CCC6(CC5)CN(CC(C)C)C6)cc4)cc3n2C2CC2)cc1OC` [Example 61, 1-cyclopropyl-2-(3,4-dimethoxyphenyl)-6-(4-(2-isobutyl-2,7-diazaspiro[3.5]nonan-7-yl)phenyl)-1H-imidazo[4,5-c]pyridine] are 160 nM, 12000 nM and 12000 nM.
`Cn1c(-c2ccc(S(C)(=O)=O)cc2)nc2cnc(-c3ccc(N4CCC5(CC4)CN(C4COC4)C5)cc3)cc21` [Example 108, 1-methyl-2-(4-(methylsulfonyl)phenyl)-6-(4-(2-(oxetan-3-yl)-2,7-diazaspiro[3.5]nonan-7-yl)phenyl)-1H-imidazo[4,5-c]pyridine]: the IC50 was 740 nM at human TLR9, 29000 nM against human TLR7 and above 25000 nM against human TLR8.
On the same counts, the results for `COc1ccc(-c2nc3c(C)nc(-c4ccc(N5CC6(C5)CN(C5CCC5)C6)cc4)cc3n2C)cc1OC` [Example 77, 6-(4-(6-cyclobutyl-2,6-diazaspiro[3.3]heptan-2-yl)phenyl)-2-(3,4-dimethoxyphenyl)-1,4-dimethyl-1H-imidazo[4,5-c]pyridine] are 13 nM, 870 nM and 6900 nM.
For `Cc1nc(-c2ccc(N3CCC4(CC3)CN(C3CCC3)C4)cc2)cc2c1nc(-c1ccc(S(C)(=O)=O)cc1)n2C` [Example 74, 6-(4-(2-cyclobutyl-2,7-diazaspiro[3.5]nonan-7-yl)phenyl)-1,4-dimethyl-2-(4-(methylsulfonyl)phenyl)-1H-imidazo[4,5-c]pyridine], in that order: 38 nM, 1100 nM and 3700 nM.
Turning to `COc1ccc(-c2nc3c(C)nc(-c4ccc(N5CC6(CN(CC(C)(C)O)C6)C5)cc4)cc3n2C)cc1OC` [Example 58, 1-(6-(4-(2-(3,4-dimethoxyphenyl)-1,4-dimethyl-1H-imidazo[4,5-c]pyridin-6-yl)phenyl)-2,6-diazaspiro[3.3]heptan-2-yl)-2-methylpropan-2-ol], the IC50 against human TLR9 was 89 nM; on human TLR7 it was 1300 nM; on human TLR8, above 50000 nM.
Take `COc1ccc(-c2nc3c(C)nc(-c4ccc(N5C[C@@H]6CN(C(C)C)C[C@@H]6C5)cc4)cc3n2C)cc1OC` [Example 59, 2-(3,4-dimethoxyphenyl)-6-(4-((3aR,6aS)-5-isopropylhexahydropyrrolo[3,4-c]pyrrol-2(1H)-yl)phenyl)-1,4-dimethyl-1H-imidazo[4,5-c]pyridine]: the IC50 at human TLR9 is 24 nM; on human TLR7, 1700 nM; against human TLR8 it was 21000 nM.
On the same counts, the results for `Cc1nc(-c2ccc(N3CC4(C3)CN(C3CCC3)C4)cc2)cc2c1nc(-c1ccc(S(C)(=O)=O)cc1)n2C` [Example 79, 6-(4-(6-cyclobutyl-2,6-diazaspiro[3.3]heptan-2-yl)phenyl)-1,4-dimethyl-2-(4-(methylsulfonyl)phenyl)-1H-imidazo[4,5-c]pyridine] are 130 nM, 1100 nM and 3700 nM.
